Measured values from US10155751B2, “Pyrazolyl-substituted heteroaryls and their use as medicaments” (Boehringer Ingelheim International GmbH, priority 2015, dated 2018).
Like-named read-outs stand apart in the source and are kept apart here.

Key:
[1] = target: Recombinant human FLT3 (amino acids 564-958) (Homo sapiens (Human), UniProt P36888); test: FLT3 kinase test (ADP Glo); type: biochemical
Protocol: The activity of the FLT3 kinase protein was determined using the ADP Glo® Luminescence Kinase test (Promega; V9103X). In this homogeneous test the amount of ADP remaining after the kinase reaction is quantified by a luciferin-luciferase reaction using luminescence. The luminescence signal obtained correlates with the amount of ADP still present and thus correlates with the activity of the protein kinase.
The test compounds were dissolved in 100% DMSO at a concentration of 10 mM and diluted in DMSO to a concentration of 5 mM. Serial Dilution is done in 1:10 steps in 100% DMSO. All further dilutions of the substances were carried out with test buffer (50 mM Hepes, pH 7.5, 10 mM MgCl2, 1 mM EGTA, 0.01% Brij35, 0.1% BSA) until a concentration was reached which was 2.5 times above the final test concentration (final concentration of the compounds: 50 μM to 0.005 nM). […] FLT3 enzyme was diluted to 5 nM in the test buffer and 4 μl of this dilution were used in the kinase test (final concentration of FLT3=2 nM in a total volume of 10 μl). After 60 minutes incubation at room temperature 2 μl mixture of 2.5 mg/ml substrate (Poly-Glu/Tyr; Sigma #P0275) and 2.5 mM ultra-pure ATP (Promega #V915B) in test buffer were added to each well and the incubation was continued for a further 90 minutes at room temperature.
Positive controls are the reaction mixtures that contain no test substance; negative controls (blanks) are reaction mixtures that contain no kinase.
After 90 minutes, 10 μl ADP-Glo® solution (ADP-Glo Reagent #V912B Promega) (heated to room temperature) were added to each well and incubation was continued for a further 60. minutes. Then 20 μl Kinase detection mix (Detection Buffer #V913B Promega; Kinase Detection Substrate #V914B Promega) were added and incubated for 40 minutes at room temperature. The plates were read in Envision Luminescence Reader (Perkin-Elmer).
The output file of the reader is a csv file that contains the well number and measured RLU. For data evaluation and calculation, the measurement of the negative control was set as 0% ctrl and the measurement of the positive control was set as 100% ctrl. Based on this values the % value for the measurement of each substance concentration can be calculated using an Assay Explorer software (e.g. Accelrys). Normally, the % ctrl values calculated are between 0% and 100% values but may also occur outside these limits in individual cases based on variability or compound characteristics. The IC50 values were calculated from the % ctrl values using Assay Explorer software. Calculation: [y=(a−d)/(1+(x/c)^b)+d], a=low value, d=high value; x=conc. M; c=IC50 M; b=hill; y=% ctrl.

[2] = test system: SYK dependent basophil degranulation (CD63 surface expression on basophils in whole blood); test: CD63-assay (cellular assay for SYK-inhibition) in whole blood; type: cell-based
Protocol: In this assay, IgE raised against dinitrophenol (DNP) is incubated in whole blood where it binds to the FcεR1 on basophils. […] CD63 normally resides on the intracellular granule membrane within basophils, which upon degranulation, is then expressed on the surface where it can be detected by flow cytometry. Surface expression of CD63 correlates extremely well with the release of histamine from basophils. The CD63 assay has previously been validated as a clinical target engagement biomarker in the Fostamatinib SYK program (Braselmann et al, J. Pharm. Exp. Therap. 319:998-1008, 2006). Heparinized whole blood is mixed gently (vortex mixer) and […] per test aliquoted into a 96 well plate. Anti-DNP (1 mg/ml) is diluted 1:100 with PBS/0.1% HSA to 10 μg/ml (final concentration: 1 μg/mL). Pre-dilute DNP/BSA (5 mg/ml) to a concentration of 60 ng/ml with washing solution. Compounds: […] Reagents are provided from the Basotest® kit. Incubate 10 μl of 10 μg/ml anti DNP and 10 μl of compound with 100 μl whole blood in a 37° C. pre-warmed water bath. After 30 minutes, 20 μl of STIMULATION BUFFER is added to the whole blood samples and vortexed gently. Incubate the samples for 10 min at 37° C. in a water bath. 100 μl of DNP/BSA is added per test to the whole blood. Add 100 μl of the WASHING SOLUTION to a further test tube as a negative control. Add 100 μl of DNP/BSA (final 30 ng/ml) in the compound tubes. All tubes are mixed once more. The samples are incubated for 20 min at 37° C. in a water bath. Stop degranulation by incubating the samples on ice for 5 min. Add 20 μl of STAINING REAGENT to each tube. Vortex and incubate the tubes for 20 min in an ice bath, covered to prevent exposure to light. The whole blood samples are lysed and fixed with 2 ml of pre-warmed (room temperature) 1×LYSING SOLUTION. Vortex and incubate for 10 min at room temperature. Spin down cells (5 min, 250×g, 4° C.). Discard the supernatant. Add 3 ml of WASHING SOLUTION to the tubes. Centrifuge the tubes (5 min, 250×g, 4° C.). Aspirate the supernatant. Add 200 μl WASHING SOLUTION to the cell pellet, vortex. Incubate the tubes in a covered ice bath until analysis. Cells are analysed by flow cytometry using the blue-green excitation light (488 nm argon-ion laser). Acquire data by using fluorescence triggering in the FL2 channel (PE) to gate on basophilic granulocytes expressing high amounts of IgE. This live gating reduces the amount of data and saves memory capacity. Acquire at least 500 basophils per sample. For data evaluation and calculation, the measurement of the negative control (unstimulated blood) was set as 100% control and the measurement of the positive control (DNP/anti-DNP stimulated blood) was set as 0% control. Based on these values the % value for the measurement of each substance concentration was calculated, a concentration-effect curve fitted and an EC50 value calculated using GraphPad Prism version 6.01 for Windows. The EC50 value was calculated using a nonlinear fitting (log(inhibitor) vs. response—variable slope). Normally, the % control values calculated are between 0% and 100% values but may also occur outside these limits in individual cases based on variability or compound characteristics.

[3] = read-out: FLT3 inhibition IC50-value (chapter 5.4)
[4] = whole blood, DNP/anti-DNP stimulated basophils, read-out: CD63 assay EC50-value (chapter 5.2)

Recombinant human FLT3 (amino acids 564-958), sequence (P36888 564-958): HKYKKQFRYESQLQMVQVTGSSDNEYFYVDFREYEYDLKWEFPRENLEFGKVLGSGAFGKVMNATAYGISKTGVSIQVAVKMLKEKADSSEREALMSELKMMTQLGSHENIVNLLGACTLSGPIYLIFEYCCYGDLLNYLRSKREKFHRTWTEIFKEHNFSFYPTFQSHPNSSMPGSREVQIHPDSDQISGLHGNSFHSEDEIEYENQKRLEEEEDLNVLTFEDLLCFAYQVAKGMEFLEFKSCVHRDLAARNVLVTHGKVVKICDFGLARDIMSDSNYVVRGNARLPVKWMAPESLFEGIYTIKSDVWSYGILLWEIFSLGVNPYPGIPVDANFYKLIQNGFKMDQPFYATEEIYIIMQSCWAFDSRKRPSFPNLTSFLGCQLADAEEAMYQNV

SMILES	IC50 [1, 3]	EC50 [2, 4]	IC50 ([1]; read-out: IC50(FLT3))	EC50 ([2]; read-out: EC50 in CD63-assay)
Cc1c2c(O[C@H](C)[C@H]3CNC(=O)C3)cc(-c3cnn(C4CC4)c3)cc2nn1C [Example 20, (R)-4-{(R)-1-[6-(1-Cyclopropyl-1H-pyrazol-4-yl)-2,3-dimethyl-2H-indazol-4-yloxy]-ethyl}-pyrrolidin-2-one]	3320 nM	134 nM	–	–
Cc1c2c(O[C@H](C)[C@H]3CNC(=O)C3)cc(-c3cnn(C4CCC4)c3)cc2nn1C [Example 21, (R)-4-{(R)-1-[6-(1-Cyclobutyl-1H-pyrazol-4-yl)-2,3-dimethyl-2H-indazol-4-yloxy]-ethyl}-pyrrolidin-2-one]	2210 nM	76 nM	–	–
Cc1c2c(O[C@H](C)[C@H]3CNC(=O)C3)cc(-c3cnn(C4CCC(F)(F)C4)c3)cc2nn1C (stereo partly drawn) [Example 22, (R)-4-((R)-1-{6-[1-(3,3-Difluoro-cyclopentyl)-1H-pyrazol-4-yl]-2,3-dimethyl-2H-indazol-4-yloxy}-ethyl)-pyrrolidin-2-one]	1950 nM	67 nM	–	–
C[C@@H](Oc1nc(-c2cnn(C(C)(C)C)c2)cc2ncn(C)c12)[C@H]1CNC(=O)C1 [example 3A.02, on page 196 of WO15017610, reference compound]	384 nM	42 nM	384 nM	< 150 nM
C[C@@H](Oc1cc(-c2cnn(C(C)(C)C)c2)cc2ncn(C)c12)[C@H]1CNC(=O)C1 [example 3B.22 on page 219 of WO15017610, reference compound]	307 nM	29 nM	307 nM	< 150 nM
Cc1cnn2cc(-c3cnn(C(C)(C)C)c3)nc(O[C@H](C)[C@H]3CNC(=O)C3)c12 [example 5.20 on page 506 of WO15017610, reference compound]	43 nM	77 nM	43 nM	< 150 nM
Cc1cnn2cc(-c3cnn(C(C)(C)C)c3)cc(O[C@H](C)[C@H]3CNC(=O)C3)c12 [example 6.09 on page 559 of WO15017610, reference compound]	25 nM	20 nM	25 nM	< 150 nM
Cc1cc2c(O[C@H](C)[C@H]3CNC(=O)C3)cc(-c3cnn(C(C)(C)C)c3)cn2n1 [example 6.60 on page 587 of WO15017610, reference compound]	6680 nM	483 nM	6680 nM	483 nM
